Assay results from patent publication US10681909B2, “Herbicidal triazoles” (FMC Corporation, priority 2014, dated 2020).

Tests used:
velvetleaf = assay: Test C preemergence; assay type: in vivo, Abutilon theophrasti; details: for Velvetleaf plant response rating (0 to 100): Preemergence, visual rating after 13 to 15 d; for Plant response rating (scale of 0 to 100 where 0 is no effect and 100 is complete control): Velvetleaf, preemergence, 250 g ai/ha
Text: (§1) Seeds of plant species selected from blackgrass (Alopecurus myosuroides), ryegrass, Italian (Italian ryegrass, Lolium multiflorum), wheat (winter wheat, Triticum aestivum), galium (catchweed bedstraw, Galium aparine), corn (Zea mays), crabgrass, large (large crabgrass, Digitaria sanguinalis), foxtail, giant, (giant foxtail, Setaria faberii), johnsongrass (Sorghum halepense), lambsquarters (Chenopodium album), morningglory (Ipomoea coccinea), nutsedge, yellow (yellow nutsedge, Cyperus esculentus), pigweed (Amaranthus retroflexus), ragweed (common ragweed, Ambrosia elatior), soybean (Glycine max), barnyardgrass (Echinochloa crus-galli), oilseed rape (Brassica napus), waterhemp (common waterhemp, Amaranthus rudis), and velvetleaf (Abutilon theophrasti) were planted into a blend of loam soil and sand and treated preemergence with test chemicals formulated in a non-phytotoxic solvent mixture which included a surfactant. At the same time, plants selected from these crop and weed species and also chickweed (common chickweed, Stellaria media), oat, wild (wild oat, Avena fatua), and kochia (Kochia scoparia), were planted in pots containing Sunshine Redi-Earth® planting medium comprising spaghnum peat moss, vermiculite, starter nutrients and dolomitic limestone and treated with postemergence applications of test chemicals formulated in the same manner. Plants ranged in height from 2 to 18 cm (1- to 4-leaf stage) for postemergence treatments. […] A dash (-) response means no test result.

kochia = assay: Test A preemergence; assay type: in vivo, Kochia scoparia; details: 0 to 100 scale (0 no effect, 100 complete control)
In short: (§2)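 Weed and crop species in loam–sand blend sprayed preemergence on soil or postemergence at 2–10 cm, one- to two-leaf stage, with chemicals in surfactant-containing solvent. Injury rated visually after ~10 d in greenhouse versus untreated controls on a 0–100 scale (100 = complete control).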

ryegrass, Italian = assay: Test A preemergence; assay type: in vivo, Lolium multiflorum; details: 0 to 100 scale (0 no effect, 100 complete control)
In short: as §2

deadnettle = assay: Test D preemergence; assay type: in vivo, Lamium amplexicaule; details: for Plant response rating: Deadnettle: scale 0 to 100
Text: (§3) Seeds of plant species selected from bluegrass (annual bluegrass, Poa annua), blackgrass (Alopecurus myosuroides), canarygrass (Phalaris minor), chickweed (common chickweed, Stellaria media), galium (catchweed bedstraw, Galium aparine), bromegrass, down (downy bromegrass, Bromus tectorum), Russian thistle (Salsola kali), field poppy (Papaver rhoeas), field violet (Viola arvensis), foxtail, green (green foxtail, Setaria viridis), deadnettle (henbit deadnettle, Lamium amplexicaule), ryegrass, Ital. (Italian ryegrass, Lolium multiflorum), kochia (Kochia scoparia), lambsquarters (Chenopodium album), oilseed rape (Brassica napus), pigweed (Amaranthus retroflexus), chamomile (scentless chamomile, Matricaria inodora), speedwell (bird's-eye speedwell, Veronica persica), barley, spring (spring barley, Hordeum vulgare), wheat, spring (spring wheat, Triticum aestivum), buckwheat, wild (wild buckwheat, Polygonum convolvulus), wild mustard (Sinapis arvensis), oat, wild (wild oat, Avena fatua), radish, wild (wild radish, Raphanus raphanistrum), […]), barley, winter (winter barley, Hordeum vulgare), and wheat, winter (winter wheat, Triticum aestivum) were planted into a silt loam soil and treated preemergence with test chemicals formulated in a non-phytotoxic solvent mixture which included a surfactant. At the same time, these species were planted in pots containing Sunshine Redi-Earth® planting medium comprising spaghnum peat moss, vermiculite, starter nutrients and dolomitic limestone and treated with postemergence applications of the test chemicals formulated in the same manner. Plants ranged in height from 2 to 18 cm (1- to 4-leaf stage). Treated plants and controls were maintained in a controlled growth environment for 14 to 21 d after which time all species were compared to controls and visually evaluated. […] A dash (-) response means no test result.

chickweed = assay: Test D preemergence; assay type: in vivo, Stellaria media; details: for Plant response rating: Chickweed: scale 0 to 100
Text: as §3

galium = assay: Test C preemergence; assay type: in vivo, Galium aparine; details: for Plant response rating (scale of 0 to 100 where 0 is no effect and 100 is complete control): Galium, preemergence; for Galium plant response rating (0 to 100): Preemergence, visual rating after 13 to 15 d
Text: as §1

ragweed = assay: Test A postemergence; assay type: in vivo, Ambrosia elatior; details: 0 to 100 scale (0 no effect, 100 complete control), approx. 10 d
In short: as §2

corn = assay: Test A preemergence; assay type: in vivo, Zea mays; details: Zea mays, pre-emergence, 240 h, 0 to 100 scale (0 no effect, 100 complete control); for Corn plant response rating (crop injury, 0 = no effect, 100 = complete kill) at 125 g/ha: 125 g ai/ha; for Corn plant response rating (crop injury, 0 = no effect, 100 = complete kill) at 500 g/ha: 500 g ai/ha, approx. 10 d
In short: (§4)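 Pre- and postemergence spray tests in a loam soil–sand mixture: seeded soil received a directed spray, while established seedlings 2–10 cm high at the one- to two-leaf stage were treated over the top. Compounds were carried in non-phytotoxic solvent with surfactant.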

morningglory = assay: Test A preemergence; assay type: in vivo, Ipomoea spp.; details: Ipomoea, pre-emergence, 240 h, 0 to 100 scale (0 no effect, 100 complete control), read-out: Plant response rating, Morningglory; for pest or weed control at 125 g/ha: 125 g ai/ha; for pest or weed control at 500 g/ha: 500 g ai/ha, approx. 10 d
In short: as §4

[1] = 16 g ai/ha, 0 is no effect, 100 is complete control

| SMILES | Velvetleaf plant response rating (0 to 100) (velvetleaf; 31 g ai/ha) | Velvetleaf plant response rating (0 to 100) (velvetleaf; 62 g ai/ha) | Plant response rating (scale of 0 to 100 where 0 is no effect and 100 is complete control) (velvetleaf) | Plant response rating, Kochia (kochia; 125 g ai/ha) | Plant response rating, Ryegrass, Italian (ryegrass, Italian; 125 g ai/ha) | Plant response rating: Deadnettle (deadnettle; 31 g ai/ha) | Plant response rating: Deadnettle (deadnettle; 62 g ai/ha) | Plant response rating: Deadnettle (deadnettle; 125 g ai/ha) | Plant response rating: Chickweed (chickweed; 31 g ai/ha) | Plant response rating: Chickweed (chickweed; 62 g ai/ha) | Plant response rating: Chickweed (chickweed; 125 g ai/ha) | Plant response rating (scale of 0 to 100 where 0 is no effect and 100 is complete control) (galium; 125 g ai/ha) | Plant response rating (scale of 0 to 100 where 0 is no effect and 100 is complete control) (galium; 250 g ai/ha) | Galium plant response rating (0 to 100) (galium; 31 g ai/ha) | Galium plant response rating (0 to 100) (galium; 62 g ai/ha) | Plant response rating, Ragweed (ragweed; 125 g ai/ha) | Corn plant response rating (crop injury, 0 = no effect, 100 = complete kill) at 125 g/ha (corn) [%] | Corn plant response rating (crop injury, 0 = no effect, 100 = complete kill) at 500 g/ha (corn) [%] | pest or weed control at 125 g/ha (morningglory) [%] | pest or weed control at 500 g/ha (morningglory) [%] | further results |
| --- | --- | --- | --- | --- | --- | --- | --- | --- | --- | --- | --- | --- | --- | --- | --- | --- | --- | --- | --- | --- | --- |
| CCOc1nc(-c2ccc(C(F)(F)F)cc2)nn1Cc1ccnc(C(F)(F)F)c1 [Compound 35, 4-[[5-ethoxy-3-[4-(trifluoromethyl)phenyl]-1H-1,2,4-triazole-1-yl]methyl]-2-(trifluoromethyl)pyridine] | 70 | 65 | 90 | 90 | 60 | 85 | 100 | 100 | 85 | 100 | 100 | 90 | 90 | 50 | 80 | 60 | – | – | – | – | Plant response rating, Kochia (kochia; 31 g ai/ha): 90; Plant response rating, Ryegrass, Italian (ryegrass, Italian; 31 g ai/ha): 30; Plant response rating (0 to 100), Deadnettle (deadnettle; [1]): 80; Plant response rating (0 to 100), Chickweed (chickweed; [1]): 70; Plant response rating, Ragweed (ragweed; 31 g ai/ha): 20 |
| CCOc1nc(-c2ccc(F)cc2)nn1Cc1ccnc(C(F)(F)F)c1 [Compound 8, 4-[[5-ethoxy-3-(4-fluorophenyl)-1H-1,2,4-triazol-1-yl]methyl]-2-(trifluoromethyl)pyridine] | 70 | 85 | 100 | – | – | 100 | 100 | 100 | 100 | 100 | 100 | 100 | 100 | 80 | 100 | – | 90 | 100 | 100 | 100 | Plant response rating: Deadnettle (deadnettle; 250 g ai/ha): 100; Plant response rating: Chickweed (chickweed; 250 g ai/ha): 100 |
| CCCc1nc(-c2ccc(F)cc2)nn1Cc1ccnc(C(F)(F)F)c1 [Compound 6, 4-[[3-(4-fluorophenyl)-5-propyl-1H-1,2,4-triazol-1-yl]methyl]-2-(trifluoromethyl)pyridine] | 20 | 75 | 100 | – | – | – | – | – | – | – | – | 100 | 100 | 90 | 98 | – | 20 | 30 | 50 | 100 | – |
| COc1nc(-c2ccccc2)nn1Cc1ccnc(C(F)(F)F)c1 [Compound 32] | 20 | 10 | 60 | 100 | 40 | – | – | – | – | – | – | 60 | 80 | 0 | 0 | 30 | – | – | – | – | Plant response rating, Kochia (kochia; 500 g ai/ha, approx. 10 d): 100; Plant response rating, Ryegrass, Italian (ryegrass, Italian; 500 g ai/ha): 60; Plant response rating, Ragweed (ragweed; 500 g ai/ha): 70 |
| CCc1nc(-c2ccc(C(F)(F)F)cc2)nn1Cc1ccnc(C(F)(F)F)c1 [Compound 1, 4-[[5-ethyl-3-[4-(trifluoromethyl)phenyl]-1H-1,2,4-triazol-1-yl]methyl]-2-(trifluoromethyl)pyridine] | 15 | 30 | 75 | – | – | 100 | 100 | 100 | 90 | 100 | 100 | 100 | 100 | 70 | 98 | – | 10 | 20 | 30 | 80 | Plant response rating: Deadnettle (deadnettle; 250 g ai/ha): 100; Plant response rating: Chickweed (chickweed; 250 g ai/ha): 100 |
